In the supplement of paper PMC10307832 one finds relative viability data, which are given here for five cell lines.

What all share (test): relative viability (nuclei count vs DMSO), 5 days (fraction); higher = more cells survive
Compound in test [1]: O[C@H]1CC[C@H](Nc2ncc3nc(Nc4c(F)cc(F)cc4F)n([C@H]4CCOC4)c3n2)CC1 [Tanzisertib] + COc1cc2c(Oc3ccc(NC(=O)C4(C(=O)Nc5ccc(F)cc5)CC4)cc3F)ccnc2cc1OCCCN1CCOCC1 [Foretinib] (partner 0.25 µM)
The procedure, abridged:
(§1)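 Relative viability divides the nuclei count in treated wells by that in vehicle wells. Lung cancer cell lines were seeded in 1536-well plates, dosed by pin tool the next day, and fixed and stained after 5 days in one step with final 0.05% Triton X-100, 1% formaldehyde and 1 ug/ml Hoechst. Dosing was a single drug or a fixed anchor-drug dose plus five library-drug doses (not always all listed) in √10 steps, and values are medians of duplicate plates imaged at 4×.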

Compound in test [2]: O[C@H]1CC[C@H](Nc2ncc3nc(Nc4c(F)cc(F)cc4F)n([C@H]4CCOC4)c3n2)CC1 [Tanzisertib] + CC(=O)c1c(C)c2cnc(Nc3ccc(N4CCNCC4)cn3)nc2n(C2CCCC2)c1=O [Palbociclib] (partner 0.5 µM)
In outline: as §1

Compound in test [3]: C[C@@H](N)c1ccc(C(=O)Nc2ccnc3[nH]ccc23)cc1 + COc1cccc2cc(-c3nc([C@H]4CC[C@H](C(=O)O)CC4)n4ncnc(N)c34)[nH]c12 [OSI-027] (partner 0.5 µM)
In outline:
as §1

Compound in test [4]: O[C@H]1CC[C@H](Nc2ncc3nc(Nc4c(F)cc(F)cc4F)n([C@H]4CCOC4)c3n2)CC1 [Tanzisertib] + CS(=O)(=O)N1CCN(Cc2cc3nc(-c4cccc5[nH]ncc45)nc(N4CCOCC4)c3s2)CC1 [Pictilisib] (partner 1 µM)
The procedure, abridged:
as §1

For the cell line PC-14, the relative viability in test [1] (first compound 0.08 µM) was found to be 1.05; in test [1] (first compound 0.253 µM), 0.983; in test [1] (first compound 0.8 µM), 0.933; in test [1] (first compound 2.53 µM) it was 0.951; in test [1] (first compound 8 µM), 0.61; in test [2] (first compound 0.08 µM), 0.681. Also, the relative viability in test [2] (first compound 0.253 µM) worked out at 0.533; in test [2] (first compound 0.8 µM), 0.589; in test [2] (first compound 2.53 µM), 0.532; in test [2] (first compound 8 µM) it was 0.208; in test [3] (first compound 0.04 µM), 0.846; in test [3] (first compound 0.1265 µM), 0.968. For the same cell line, the relative viability in test [3] (first compound 0.4 µM) was 0.904; in test [3] (first compound 1.265 µM), 0.712; in test [3] (first compound 4 µM), 0.625; in test [4] (first compound 0.08 µM), 0.778; in test [4] (first compound 0.253 µM) it was 0.594; in test [4] (first compound 0.8 µM) it was 0.799. Moreover, the relative viability worked out at 0.693 in test [4] (first compound 2.53 µM) and 0.203 in test [4] (first compound 8 µM).

For RERF-LC-KJ, the relative viability in test [1] (first compound 0.08 µM) came out at 0.929; in test [1] (first compound 0.253 µM) it was 0.788; in test [1] (first compound 0.8 µM) it was 0.873; in test [1] (first compound 2.53 µM) it was 0.841; in test [1] (first compound 8 µM), 0.842; in test [2] (first compound 0.08 µM) it was 1.12. Further, the relative viability in test [2] (first compound 0.253 µM) worked out at 1.01; in test [2] (first compound 0.8 µM), 1.25; in test [2] (first compound 2.53 µM), 1.05; in test [2] (first compound 8 µM), 1.05; in test [3] (first compound 0.04 µM) it was 0.555; in test [3] (first compound 0.1265 µM), 0.628. In addition, the relative viability in test [3] (first compound 0.4 µM) was found to be 0.591; in test [3] (first compound 1.265 µM) it was 0.672; in test [3] (first compound 4 µM), 0.6; in test [4] (first compound 0.08 µM), 0.634; in test [4] (first compound 0.253 µM), 0.606; in test [4] (first compound 0.8 µM), 0.571. Moreover, the results for the relative viability in test [4] (first compound 2.53 µM) and in test [4] (first compound 8 µM) were 0.511 and 0.458, respectively.

On to SK-LU-1, for which the relative viability turned out to be 0.837 in test [1] (first compound 0.08 µM); 0.755 in test [1] (first compound 0.253 µM); 0.807 in test [1] (first compound 0.8 µM); 0.815 in test [1] (first compound 2.53 µM); 0.781 in test [1] (first compound 8 µM); 0.455 in test [2] (first compound 0.08 µM). Besides, the relative viability in test [2] (first compound 0.253 µM) was 0.388; in test [2] (first compound 0.8 µM) it was 0.37; in test [2] (first compound 2.53 µM), 0.384; in test [2] (first compound 8 µM), 0.389; in test [3] (first compound 0.04 µM), 0.37; in test [3] (first compound 0.1265 µM) it was 0.356. In addition, the relative viability in test [3] (first compound 0.4 µM) stood at 0.365; in test [3] (first compound 1.265 µM), 0.385; in test [3] (first compound 4 µM), 0.359; in test [4] (first compound 0.08 µM), 0.58; in test [4] (first compound 0.253 µM), 0.539; in test [4] (first compound 0.8 µM), 0.565. Moreover, the values for the relative viability in test [4] (first compound 2.53 µM) and in test [4] (first compound 8 µM) were 0.633 and 0.527, respectively.

As to SK-MES-1, the relative viability was found to be 0.971 in test [1] (first compound 0.08 µM); 0.917 in test [1] (first compound 0.253 µM); 0.889 in test [1] (first compound 0.8 µM); 0.992 in test [1] (first compound 2.53 µM); 0.7 in test [1] (first compound 8 µM); 0.327 in test [2] (first compound 0.08 µM). In addition, the relative viability amounted to 0.314 in test [2] (first compound 0.253 µM); 0.345 in test [2] (first compound 0.8 µM); 0.298 in test [2] (first compound 2.53 µM); 0.281 in test [2] (first compound 8 µM); 0.61 in test [3] (first compound 0.04 µM); 0.574 in test [3] (first compound 0.1265 µM). Besides, the relative viability in test [3] (first compound 0.4 µM) stood at 0.573; in test [3] (first compound 1.265 µM), 0.673; in test [3] (first compound 4 µM) it was 0.602; in test [4] (first compound 0.08 µM), 0.378; in test [4] (first compound 0.253 µM), 0.338; in test [4] (first compound 0.8 µM) it was 0.366. In addition, the relative viability in test [4] (first compound 2.53 µM) was 0.34; in test [4] (first compound 8 µM), 0.245.

As to SW 1573, the relative viability is 0.73 in test [1] (first compound 0.08 µM); 0.92 in test [1] (first compound 0.253 µM); 0.898 in test [1] (first compound 0.8 µM); 0.933 in test [1] (first compound 2.53 µM); 0.819 in test [1] (first compound 8 µM); 0.444 in test [2] (first compound 0.08 µM). Also, the relative viability is 0.455 in test [2] (first compound 0.253 µM); 0.333 in test [2] (first compound 0.8 µM); 0.456 in test [2] (first compound 2.53 µM); 0.316 in test [2] (first compound 8 µM); 0.694 in test [3] (first compound 0.04 µM); 0.604 in test [3] (first compound 0.1265 µM). In addition, the relative viability came out at 0.69 in test [3] (first compound 0.4 µM); 0.485 in test [3] (first compound 1.265 µM); 0.485 in test [3] (first compound 4 µM); 0.63 in test [4] (first compound 0.08 µM); 0.373 in test [4] (first compound 0.253 µM); 0.481 in test [4] (first compound 0.8 µM). The relative viability was 0.584 in test [4] (first compound 2.53 µM) and 0.505 in test [4] (first compound 8 µM).
